Test results: patent US9890133B2 (priority 2011, dated 2018)
In brackets after ≈: the same amount, converted by molar mass.

What was measured:
Poliovirus 3 = assay: microbe, parasite or virus in culture; format: cell-based; settings: Enterovirus C, read-out: Poliovirus3 EC50
in vitro = settings: human

## CC(C)c1ccc2c(c1)OC1(O)c3cccc(N)c3C(=O)C21NC(=O)c1cc(C(F)(F)F)ccn1 (centres unmarked) [Example 244, N-(1-Amino-4b-hydroxy-7-isopropyl-10-oxo-9b,10-dihydro-4bH-benzo[d]indeno[1,2-b]furan-9b-yl)-4-(trifluoromethyl)picolinamide]
Poliovirus 3
  EC50: < 0.01 µg/mL
In vitro
  CC50: > 10 µg/mL
In vitro; Picorana CC50
  CC50: 15.7 µg/mL (≈ 32.5 µM)

## CC(C)c1ccc2c(c1)OC1(O)c3cccc(N)c3C(=O)C21NC(=O)c1ccc(C#N)cn1 (centres unmarked) [Example 245, N-(1-Amino-4b-hydroxy-7-isopropyl-10-oxo-9b,10-dihydro-4bH-benzo[d]indeno[1,2-b]furan-9b-yl)-5-cyanopicolinamide]
Poliovirus 3
  EC50: < 0.01 µg/mL
In vitro
  CC50: > 10 µg/mL
In vitro; Picorana CC50
  CC50: 8.47 µg/mL (≈ 19.2 µM)

## CC(C)c1ccc2c(c1)OC1(O)c3cccc(N)c3C(=O)C21NC(=O)c1ncccc1Cl (centres unmarked) [Example 246, N-(1-Amino-4b-hydroxy-7-isopropyl-10-oxo-9b,10-dihydro-4bH-benzo[d]indeno[1,2-b]furan-9b-yl)-3-chloropicolinamide]
Poliovirus 3
  EC50: < 0.01 µg/mL
In vitro
  CC50: > 10 µg/mL
In vitro; Picorana CC50
  CC50: 9.84 µg/mL (≈ 21.9 µM)

## CC(C)c1ccc2c(c1)OC1(O)c3cccc(N)c3C(=O)C21NC(=O)c1cc2ccccc2cn1 (centres unmarked) [Example 248, N-(1-Amino-4b-hydroxy-7-isopropyl-10-oxo-9b,10-dihydro-4bH-indeno[1,2-b]benzofuran-9b-yl)isoquinoline-3-carboxamide]
Poliovirus 3
  EC50: 0.027 µg/mL (≈ 0.058 µM)
In vitro
  CC50: > 10 µg/mL
In vitro; Picorana CC50
  CC50: 4.99 µg/mL (≈ 10.7 µM)

## Cc1cc(C(=O)NC23C(=O)c4c(N)cccc4C2(O)Oc2cc(C(C)C)ccc23)ccn1 (centres unmarked) [Example 249, N-(1-Amino-4b-hydroxy-7-isopropyl-10-oxo-9b,10-dihydro-4bH-indeno[1,2-b]benzofuran-9b-yl)-2-methylisonicotinamide]
Poliovirus 3
  EC50: < 0.01 µg/mL
In vitro
  CC50: > 10 µg/mL

## CC(C)c1ccc2c(c1)OC1(O)c3cccc(N)c3C(=O)C21NC(=O)c1ccncc1F (centres unmarked) [Example 250, N-(1-Amino-4b-hydroxy-7-isopropyl-10-oxo-9b,10-dihydro-4bH-indeno[1,2-b]benzofuran-9b-yl)-3-fluoroisonicotinamide]
Poliovirus 3
  EC50: < 0.01 µg/mL
In vitro
  CC50: > 10 µg/mL

## CC(C)c1ccc2c(c1)OC1(O)c3cccc(N)c3C(=O)C21NC(=O)c1ccncc1Cl (centres unmarked) [Example 251, N-(1-Amino-4b-hydroxy-7-isopropyl-10-oxo-9b,10-dihydro-4bH-indeno[1,2-b]benzofuran-9b-yl)-3-chloroisonicotinamide]
Poliovirus 3
  EC50: < 0.01 µg/mL
In vitro
  CC50: > 10 µg/mL

## CC(C)c1ccc2c(c1)OC1(O)c3cccc(N)c3C(=O)C21NC(=O)c1nccn1C (centres unmarked) [Example 252, N-(1-Amino-4b-hydroxy-7-isopropyl-10-oxo-9b,10-dihydro-4bH-indeno[1,2-b]benzofuran-9b-yl)-1-methyl-1H-imidazole-2-carboxamide]
Poliovirus 3
  EC50: < 0.01 µg/mL
In vitro
  CC50: 3.53 µg/mL (≈ 8.44 µM)
In vitro; Picorana CC50
  CC50: 3.64 µg/mL (≈ 8.7 µM)

## CC(C)c1ccc2c(c1)OC1(O)c3cccc(N)c3C(=O)C21NC(=O)c1cccc[n+]1[O-] (centres unmarked) [Example 253, 2-((1-Amino-4b-hydroxy-7-isopropyl-10-oxo-9b,10-dihydro-4bH-indeno[1,2-b]benzofuran-9b-yl)carbamoyl)pyridine 1-oxide]
Poliovirus 3
  EC50: < 0.01 µg/mL
In vitro
  CC50: > 10 µg/mL

## CC(C)c1ccc2c(c1)OC1(O)c3cccc(N)c3C(=O)C21NC(=O)c1cncc(F)c1 (centres unmarked) [Example 255, N-(1-Amino-4b-hydroxy-7-isopropyl-10-oxo-9b,10-dihydro-4bH-indeno[1,2-b]benzofuran-9b-yl)-5-fluoronicotinamide]
Poliovirus 3
  EC50: < 0.01 µg/mL
In vitro
  CC50: > 10 µg/mL

## CC(C)c1ccc2c(c1)OC1(O)c3cccc(N)c3C(=O)C21NC(=O)c1cncc(O)c1 (centres unmarked) [Example 256, N-(1-Amino-4b-hydroxy-7-isopropyl-10-oxo-9b,10-dihydro-4bH-indeno[1,2-b]benzofuran-9b-yl)-5-hydroxynicotinamide]
Poliovirus 3
  EC50: < 0.01 µg/mL
In vitro
  CC50: > 10 µg/mL

## CC(C)c1ccc2c(c1)OC1(O)c3cccc(N)c3C(=O)C21NC(=O)c1ncccc1O (centres unmarked) [Example 257, N-(1-Amino-4b-hydroxy-7-isopropyl-10-oxo-9b,10-dihydro-4bH-indeno[1,2-b]benzofuran-9b-yl)-3-hydroxypicolinamide]
Poliovirus 3
  EC50: 0.031 µg/mL (≈ 0.0719 µM)
In vitro
  CC50: > 10 µg/mL

## Cc1ccncc1C(=O)NC12C(=O)c3c(N)cccc3C1(O)Oc1cc(C(C)C)ccc12 (centres unmarked) [Example 258, N-(1-Amino-4b-hydroxy-7-isopropyl-10-oxo-9b,10-dihydro-4bH-indeno[1,2-b]benzofuran-9b-yl)-4-methylnicotinamide]
Poliovirus 3
  EC50: 0.04 µg/mL (≈ 0.0931 µM)
In vitro
  CC50: > 10 µg/mL

## Cc1cncc(C(=O)NC23C(=O)c4c(N)cccc4C2(O)Oc2cc(C(C)C)ccc23)c1 (centres unmarked) [Example 259, N-(1-Amino-4b-hydroxy-7-isopropyl-10-oxo-9b,10-dihydro-4bH-indeno[1,2-b]benzofuran-9b-yl)-5-methylnicotinamide]
Poliovirus 3
  EC50: < 0.01 µg/mL
In vitro
  CC50: > 10 µg/mL

## Cc1cc2c(cc1C)C1(NC(=O)c3cccnc3)C(=O)c3c(N)cccc3C1(O)O2 (centres unmarked) [Example 260, N-(1-Amino-4b-hydroxy-7,8-dimethyl-10-oxo-9b,10-dihydro-4bH-indeno[1,2-b]benzofuran-9b-yl)nicotinamide]
Poliovirus 3
  EC50: 0.04 µg/mL (≈ 0.0996 µM)
In vitro
  CC50: > 10 µg/mL

## COc1cncc(C(=O)NC23C(=O)c4c(N)cccc4C2(O)Oc2cc(C(C)C)ccc23)c1 (centres unmarked) [Example 261, N-(1-Amino-4b-hydroxy-7-isopropyl-10-oxo-9b,10-dihydro-4bH-indeno[1,2-b]benzofuran-9b-yl)-5-methoxynicotinamide]
Poliovirus 3
  EC50: < 0.01 µg/mL
In vitro
  CC50: > 10 µg/mL

## Cc1cc2c(cc1C)C1(NC(=O)c3ccc4ncccc4c3)C(=O)c3c(N)cccc3C1(O)O2 (centres unmarked) [Example 262, N-(1-Amino-4b-hydroxy-7,8-dimethyl-10-oxo-9b,10-dihydro-4bH-indeno[1,2-b]benzofuran-9b-yl)quinoline-6-carboxamide]
Poliovirus 3
  EC50: 0.0124 µg/mL (≈ 0.0275 µM)
In vitro
  CC50: > 10 µg/mL

## CC(C)c1ccc2c(c1)OC1(O)c3cccc(N)c3C(=O)C21NC(=O)c1ccc2ccccc2n1 (centres unmarked) [Example 263]
Poliovirus 3
  EC50: 0.039 µg/mL (≈ 0.0838 µM)
In vitro
  CC50: 5.4 µg/mL (≈ 11.6 µM)
In vitro; Picorana CC50
  CC50: 7.65 µg/mL (≈ 16.4 µM)

## CC(C)c1ccc2c(c1)OC1(O)c3cccc(N)c3C(=O)C21NC(=O)c1cc2ccccc2[nH]1 (centres unmarked) [Example 265]
Poliovirus 3
  EC50: < 0.01 µg/mL
In vitro
  CC50: 4.4 µg/mL (≈ 9.7 µM)
In vitro; Picorana CC50
  CC50: 4.75 µg/mL (≈ 10.5 µM)

## CC(C)c1ccc2c(c1)OC1(O)c3cccc(N)c3C(=O)C21NC(=O)c1nccc2ccccc12 (centres unmarked) [Example 266, N-(1-Amino-4b-hydroxy-7-isopropyl-10-oxo-9b,10-dihydro-4bH-benzo[d]indeno[1,2-b]furan-9b-yl)isoquinoline-1-carboxamide]
Poliovirus 3
  EC50: < 0.01 µg/mL
In vitro
  CC50: > 10 µg/mL
In vitro; Picorana CC50
  CC50: 6.41 µg/mL (≈ 13.8 µM)

## CC(C)c1ccc2c(c1)OC1(O)c3cccc(N)c3C(=O)C21NC(=O)c1cc2ccccc2n1C (centres unmarked) [Example 268, N-(1-Amino-4b-hydroxy-7-isopropyl-10-oxo-9b,10-dihydro-4bH-indeno[1,2-b]benzofuran-9b-yl)-1-methyl-1H-indole-2-carboxamide]
Poliovirus 3
  EC50: 0.036 µg/mL (≈ 0.077 µM)
In vitro
  CC50: > 10 µg/mL
In vitro; Picorana CC50
  CC50: 9.28 µg/mL (≈ 19.8 µM)

## Cc1nn(C)c2ncc(C(=O)NC34C(=O)c5c(N)cccc5C3(O)Oc3cc(C(C)C)ccc34)cc12 (centres unmarked) [Example 271, N-(1-Amino-4b-hydroxy-7-isopropyl-10-oxo-9b,10-dihydro-4bH-indeno[1,2-b]benzofuran-9b-yl)-1,3-dimethyl-1H-pyrazolo[3,4-b]pyridine-5-carboxamide]
Poliovirus 3
  EC50: < 0.01 µg/mL
In vitro
  CC50: > 10 µg/mL

## CC(C)c1ccc2c(c1)OC1(O)c3cccc(N)c3C(=O)C21NC(=O)c1ccc2nccn2c1 (centres unmarked) [Example 272, N-(1-Amino-4b-hydroxy-7-isopropyl-10-oxo-9b,10-dihydro-4bH-indeno[1,2-b]benzofuran-9b-yl)imidazo[1,2-a]pyridine-6-carboxamide]
Poliovirus 3
  EC50: < 0.01 µg/mL
In vitro
  CC50: > 10 µg/mL

## CC(C)c1ccc2c(c1)OC1(O)c3cccc(N)c3C(=O)C21NC(=O)c1cc2ncccn2n1 (centres unmarked) [Example 273, N-(1-Amino-4b-hydroxy-7-isopropyl-10-oxo-9b,10-dihydro-4bH-indeno[1,2-b]benzofuran-9b-yl)pyrazolo[1,5-a]pyrimidine-2-carboxamide]
Poliovirus 3
  EC50: < 0.01 µg/mL
In vitro
  CC50: > 10 µg/mL

## Cc1c(C(=O)NC23C(=O)c4c(N)cccc4C2(O)Oc2cc(C(C)C)ccc23)sc2ccccc12 (centres unmarked) [Example 274, N-(1-Amino-4b-hydroxy-7-isopropyl-10-oxo-9b,10-dihydro-4bH-indeno[1,2-b]benzofuran-9b-yl)-3-methylbenzo[b]thiophene-2-carboxamide]
Poliovirus 3
  EC50: 0.036 µg/mL (≈ 0.0743 µM)
In vitro
  CC50: > 10 µg/mL

## CC(C)c1ccc2c(c1)OC1(O)c3cccc(N)c3C(=O)C21NC(=O)c1cnc2ccccc2n1 (centres unmarked) [Example 275, N-(1-Amino-4b-hydroxy-7-isopropyl-10-oxo-9b,10-dihydro-4bH-indeno[1,2-b]benzofuran-9b-yl)quinoxaline-2-carboxamide]
Poliovirus 3
  EC50: 0.035 µg/mL (≈ 0.075 µM)
In vitro
  CC50: 4.55 µg/mL (≈ 9.75 µM)
In vitro; Picorana CC50
  CC50: 4.78 µg/mL (≈ 10.2 µM)

## CC(C)c1ccc2c(c1)OC1(O)c3cccc(N)c3C(=O)C21NC(=O)c1ccnnc1 (centres unmarked) [Example 276, N-(1-Amino-4b-hydroxy-7-isopropyl-10-oxo-9b,10-dihydro-4bH-indeno[1,2-b]benzofuran-9b-yl)pyridazine-4-carboxamide]
Poliovirus 3
  EC50: < 0.01 µg/mL
In vitro
  CC50: > 10 µg/mL

## CC(C)c1ccc2c(c1)OC1(O)c3cccc(N)c3C(=O)C21NC(=O)c1ccc2nnnn2c1 (centres unmarked) [Example 278, N-(1-Amino-4b-hydroxy-7-isopropyl-10-oxo-9b,10-dihydro-4bH-indeno[1,2-b]benzofuran-9b-yl)tetrazolo[1,5-a]pyridine-6-carboxamide]
Poliovirus 3
  EC50: < 0.01 µg/mL
In vitro
  CC50: > 10 µg/mL

## CC(C)c1ccc2c(c1)OC1(O)c3cccc(N)c3C(=O)C21NC(=O)c1cccn2nnnc12 (centres unmarked) [Example 279, N-(1-Amino-4b-hydroxy-7-isopropyl-10-oxo-9b,10-dihydro-4bH-indeno[1,2-b]benzofuran-9b-yl)tetrazolo[1,5-a]pyridine-8-carboxamide]
Poliovirus 3
  EC50: 0.035 µg/mL (≈ 0.0767 µM)
In vitro
  CC50: 4.94 µg/mL (≈ 10.8 µM)
In vitro; Picorana CC50
  CC50: 7.88 µg/mL (≈ 17.3 µM)

## Cc1ccnc2nc(C(=O)NC34C(=O)c5c(N)cccc5C3(O)Oc3cc(C(C)C)ccc34)nn12 (centres unmarked) [Example 281, N-(1-Amino-4b-hydroxy-7-isopropyl-10-oxo-9b,10-dihydro-4bH-indeno[1,2-b]benzofuran-9b-yl)-7-methyl-[1,2,4]triazolo[1,5-a]pyrimidine-2-carboxamide]
Poliovirus 3
  EC50: 0.025 µg/mL (≈ 0.0531 µM)
In vitro
  CC50: > 10 µg/mL
